# Source: PubChem BioAssay (NCI)
# Several values for one entry are separate records, joined by “and”; a condition that tells them apart may be missing. Identical values can stand only once.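 Results reflect a 48-hour exposure of cells in 96-well plates to compound at five concentrations. The concentration for 50% growth inhibition is given as GI50. TGI marks complete inhibition of growth.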 Where a SMILES comes first, the peptide text is derived from it. [ ]: non-standard residue; d: D form. The star is where a group is joined. Dolaproine = CO[C@@H]([C@@H]1CCCN1)[C@@H](C)C(=O)O; Dil = CC[C@H](C)[C@H](NC)[C@@H](CC(=O)O)OC; X2 = C[C@@H](N*)[C@@H](O)c1ccccc1; NMeV = CN[C@H](C(=O)O)C(C)C
# How the values were obtained:
# Assay in all cases: NCI tumour cell line growth inhibition, 48 h
# TK-10 renal = test system: TK-10 renal
# NCI-H522 lung = test system: NCI-H522 lung
# SF-268 CNS = test system: SF-268 CNS
# SF-539 CNS = test system: SF-539 CNS
# CCRF-CEM leukemia = test system: CCRF-CEM leukemia
# A549 NSCLC = test system: A549 NSCLC
# MDA-MB-435 = test system: MDA-MB-435
# BT-549 breast = test system: BT-549 breast
# IGROV1 ovarian = test system: IGROV1 ovarian
# OVCAR-8 ovarian = test system: OVCAR-8 ovarian
# 786-0 renal = test system: 786-0 renal
# SN12C renal = test system: SN12C renal
# SK-OV-3 ovarian = test system: SK-OV-3 ovarian
# HCC-2998 colon = test system: HCC-2998 colon
# SW-620 colon = test system: SW-620 colon
# PC-3 prostate = test system: PC-3 prostate
# SR leukemia = test system: SR leukemia
# LOX IMVI melanoma = test system: LOX IMVI melanoma
# HS 578T breast = test system: HS 578T breast
# UACC-257 melanoma = test system: UACC-257 melanoma
# SK-MEL-2 melanoma = test system: SK-MEL-2 melanoma
# U251 CNS = test system: U251 CNS
# SNB-75 CNS = test system: SNB-75 CNS
# UACC-62 melanoma = test system: UACC-62 melanoma
# HCT-116 colon = test system: HCT-116 colon
# HOP-92 NSCLC = test system: HOP-92 NSCLC
# OVCAR-4 ovarian = test system: OVCAR-4 ovarian
# A498 renal = test system: A498 renal
# NCI/ADR-RES ovarian = test system: NCI/ADR-RES ovarian
# SNB-19 CNS = test system: SNB-19 CNS
# MALME-3M melanoma = test system: MALME-3M melanoma
# K-562 leukemia = test system: K-562 leukemia
# HT29 colon = test system: HT29 colon
# NCI-H460 lung = test system: NCI-H460 lung
# EKVX NSCLC = test system: EKVX NSCLC
# HCT-15 colon = test system: HCT-15 colon
# NCI-H23 lung = test system: NCI-H23 lung
# HL-60(TB) leukemia = test system: HL-60(TB) leukemia
# MOLT-4 leukemia = test system: MOLT-4 leukemia
# DU-145 prostate = test system: DU-145 prostate
# NCI-H226 lung = test system: NCI-H226 lung
# MDA-MB-231 breast = test system: MDA-MB-231 breast
# UO-31 renal = test system: UO-31 renal
# KM12 colon = test system: KM12 colon
# ACHN renal = test system: ACHN renal
# OVCAR-3 ovarian = test system: OVCAR-3 ovarian
# HOP-62 NSCLC = test system: HOP-62 NSCLC
# CAKI-1 renal = test system: CAKI-1 renal
# SF-295 CNS = test system: SF-295 CNS
# M14 melanoma = test system: M14 melanoma
# OVCAR-5 ovarian = test system: OVCAR-5 ovarian
# COLO 205 colon = test system: COLO 205 colon
# RPMI-8226 leukemia = test system: RPMI-8226 leukemia
# MCF7 breast = test system: MCF7 breast
# SK-MEL-5 melanoma = test system: SK-MEL-5 melanoma
# SK-MEL-28 melanoma = test system: SK-MEL-28 melanoma
# T-47D breast = test system: T-47D breast
structure (smiles),measurement,setting,value
CC[C@H](C)[C@@H]([C@@H](CC(=O)N1CCC[C@H]1[C@H](OC)[C@@H](C)C(=O)N[C@H](C)[C@@H](O)c1ccccc1)OC)N(C)C(=O)[C@@H](NC(=O)[C@@H](NC)C(C)C)C(C)C (H-[NMeV]V[Dil][Dolaproine]-X2),GI50,TK-10 renal,> 100 µM
same,TGI,TK-10 renal,> 100 µM
same,GI50,NCI-H522 lung,< 0.005 µM
same,TGI,NCI-H522 lung,0.0122 µM and < 0.01 µM
same,GI50,SF-268 CNS,0.00638 µM and < 0.0108 µM
same,TGI,SF-268 CNS,> 100 µM
same,GI50,SF-539 CNS,< 0.005 µM
same,TGI,SF-539 CNS,0.0128 µM and < 0.0107 µM
same,GI50,CCRF-CEM leukemia,< 0.005 µM
same,TGI,CCRF-CEM leukemia,> 100 µM
same,GI50,A549 NSCLC,< 0.005 µM
same,TGI,A549 NSCLC,> 100 µM
same,GI50,MDA-MB-435,< 0.005 µM
same,TGI,MDA-MB-435,< 0.005 µM
same,GI50,BT-549 breast,< 0.005 µM and 0.0141 µM
same,TGI,BT-549 breast,0.0507 µM and 0.0821 µM
same,GI50,IGROV1 ovarian,0.00831 µM and < 0.01 µM
same,TGI,IGROV1 ovarian,> 100 µM
same,GI50,OVCAR-8 ovarian,0.00764 µM and < 0.01 µM
same,TGI,OVCAR-8 ovarian,> 50 µM
same,GI50,786-0 renal,0.00646 µM and < 0.01 µM
same,TGI,786-0 renal,> 100 µM
same,GI50,SN12C renal,< 0.005 µM
same,TGI,SN12C renal,> 100 µM
same,GI50,SK-OV-3 ovarian,< 0.005 µM
same,TGI,SK-OV-3 ovarian,> 100 µM
same,GI50,HCC-2998 colon,< 0.005 µM
same,TGI,HCC-2998 colon,> 100 µM
same,GI50,SW-620 colon,< 0.005 µM
same,TGI,SW-620 colon,> 100 µM
same,GI50,PC-3 prostate,< 0.005 µM
same,TGI,PC-3 prostate,> 100 µM
same,GI50,SR leukemia,< 0.005 µM
same,TGI,SR leukemia,> 100 µM
same,GI50,LOX IMVI melanoma,< 0.005 µM
same,TGI,LOX IMVI melanoma,> 100 µM
same,GI50,HS 578T breast,0.0101 µM and < 0.01 µM
same,TGI,HS 578T breast,> 100 µM
same,TGI,UACC-257 melanoma,> 100 µM
same,GI50,SK-MEL-2 melanoma,< 0.005 µM
same,TGI,SK-MEL-2 melanoma,> 100 µM
same,GI50,U251 CNS,< 0.005 µM
same,TGI,U251 CNS,> 100 µM
same,GI50,SNB-75 CNS,< 0.005 µM
same,TGI,SNB-75 CNS,> 50 µM
same,GI50,UACC-62 melanoma,< 0.005 µM
same,TGI,UACC-62 melanoma,> 100 µM
same,GI50,HCT-116 colon,< 0.01 µM
same,TGI,HCT-116 colon,> 100 µM
same,TGI,HOP-92 NSCLC,> 100 µM
same,TGI,OVCAR-4 ovarian,> 100 µM
same,GI50,A498 renal,0.00518 µM
same,TGI,A498 renal,0.387 µM
same,GI50,NCI/ADR-RES ovarian,0.169 µM and 0.118 µM
same,TGI,NCI/ADR-RES ovarian,> 50 µM and 9.41 µM
same,GI50,SNB-19 CNS,< 0.005 µM
same,TGI,SNB-19 CNS,> 100 µM
same,TGI,MALME-3M melanoma,> 100 µM
same,GI50,K-562 leukemia,< 0.005 µM
same,TGI,K-562 leukemia,> 100 µM
same,GI50,HT29 colon,< 0.005 µM
same,TGI,HT29 colon,0.154 µM
same,GI50,NCI-H460 lung,< 0.005 µM
same,TGI,NCI-H460 lung,> 100 µM
same,GI50,EKVX NSCLC,0.00692 µM and < 0.01 µM
same,TGI,EKVX NSCLC,> 100 µM
same,GI50,HCT-15 colon,0.0444 µM and 0.0233 µM
same,TGI,HCT-15 colon,> 100 µM
same,GI50,NCI-H23 lung,< 0.005 µM
same,TGI,NCI-H23 lung,> 50 µM
same,GI50,HL-60(TB) leukemia,< 0.005 µM
same,TGI,HL-60(TB) leukemia,0.00787 µM and < 0.01 µM
same,GI50,MOLT-4 leukemia,< 0.005 µM
same,TGI,MOLT-4 leukemia,> 100 µM
same,GI50,DU-145 prostate,< 0.005 µM
same,TGI,DU-145 prostate,> 100 µM
same,GI50,NCI-H226 lung,0.0179 µM and < 0.0156 µM
same,TGI,NCI-H226 lung,> 50 µM
same,GI50,MDA-MB-231 breast,< 0.005 µM
same,TGI,MDA-MB-231 breast,> 13.1 µM and 1.84 µM
same,GI50,UO-31 renal,0.0419 µM
same,TGI,UO-31 renal,> 100 µM
same,GI50,KM12 colon,< 0.005 µM
same,TGI,KM12 colon,> 100 µM
same,GI50,ACHN renal,0.024 µM and 0.0202 µM
same,TGI,ACHN renal,> 100 µM
same,GI50,OVCAR-3 ovarian,< 0.01 µM
same,TGI,OVCAR-3 ovarian,0.651 µM
same,GI50,HOP-62 NSCLC,< 0.005 µM
same,TGI,HOP-62 NSCLC,> 100 µM
same,GI50,CAKI-1 renal,< 0.01 µM
same,TGI,CAKI-1 renal,> 94.8 µM
same,GI50,SF-295 CNS,< 0.005 µM
same,TGI,SF-295 CNS,> 100 µM
same,GI50,M14 melanoma,< 0.005 µM
same,TGI,M14 melanoma,0.00705 µM
same,GI50,OVCAR-5 ovarian,< 0.005 µM
same,TGI,OVCAR-5 ovarian,> 100 µM
same,GI50,COLO 205 colon,< 0.005 µM
same,TGI,COLO 205 colon,< 0.005 µM
same,GI50,RPMI-8226 leukemia,< 0.005 µM
same,TGI,RPMI-8226 leukemia,> 100 µM
same,GI50,MCF7 breast,< 0.005 µM
same,TGI,MCF7 breast,> 100 µM
same,GI50,SK-MEL-5 melanoma,< 0.005 µM
same,TGI,SK-MEL-5 melanoma,0.0505 µM and 0.0772 µM
C=C(CBr)CCCOCc1ccccc1,TGI,TK-10 renal,36.3 µM
same,TGI,NCI-H522 lung,49.1 µM
same,TGI,SF-268 CNS,32.5 µM
same,TGI,SF-539 CNS,34.8 µM
same,TGI,CCRF-CEM leukemia,> 100 µM
same,TGI,A549 NSCLC,> 100 µM
same,TGI,MDA-MB-435,88.2 µM
same,TGI,BT-549 breast,35.4 µM
same,TGI,IGROV1 ovarian,44.3 µM
same,TGI,OVCAR-8 ovarian,32.2 µM
same,TGI,786-0 renal,> 100 µM
same,TGI,SN12C renal,57.3 µM
same,TGI,SK-MEL-28 melanoma,> 100 µM
same,TGI,SK-OV-3 ovarian,> 100 µM
same,TGI,SW-620 colon,> 100 µM
same,TGI,PC-3 prostate,39.8 µM
same,TGI,SR leukemia,89.8 µM
same,TGI,LOX IMVI melanoma,92.9 µM
same,TGI,UACC-257 melanoma,> 100 µM
same,TGI,SK-MEL-2 melanoma,38 µM
same,TGI,U251 CNS,> 100 µM
same,TGI,UACC-62 melanoma,47.2 µM
same,TGI,HCT-116 colon,> 100 µM
same,TGI,HOP-92 NSCLC,49.8 µM
same,TGI,OVCAR-4 ovarian,38.2 µM
same,TGI,A498 renal,> 100 µM
same,TGI,NCI/ADR-RES ovarian,40 µM
same,TGI,SNB-19 CNS,> 100 µM
same,TGI,MALME-3M melanoma,41.7 µM
same,TGI,K-562 leukemia,> 100 µM
same,TGI,HT29 colon,39.2 µM
same,TGI,NCI-H460 lung,35.3 µM
same,TGI,EKVX NSCLC,46.6 µM
same,TGI,HCT-15 colon,68.2 µM
same,TGI,NCI-H23 lung,30.9 µM
same,TGI,HL-60(TB) leukemia,72.6 µM
same,TGI,MOLT-4 leukemia,> 100 µM
same,TGI,DU-145 prostate,> 100 µM
same,TGI,NCI-H226 lung,41.5 µM
same,TGI,UO-31 renal,26.8 µM
same,TGI,KM12 colon,33.7 µM
same,TGI,ACHN renal,27.3 µM
same,TGI,OVCAR-3 ovarian,37.6 µM
same,TGI,HOP-62 NSCLC,48.6 µM
same,TGI,CAKI-1 renal,18.2 µM
same,TGI,SF-295 CNS,> 100 µM
same,TGI,T-47D breast,> 100 µM
same,TGI,M14 melanoma,31.9 µM
same,TGI,OVCAR-5 ovarian,33.3 µM
same,TGI,COLO 205 colon,54 µM
same,TGI,RPMI-8226 leukemia,64.7 µM
same,TGI,MCF7 breast,77.1 µM
same,TGI,SK-MEL-5 melanoma,35.9 µM
